Literature values in US20230000960A1, “NEOANTIGEN COMPOSITIONS AND USES THEREOF” (BIONTECH US INC., priority 2019, published 2023).

System: ovarian carcinoma patients
Settings: poly-ICLC in combination with a NYESO-1 peptide vaccine (in addition to Montanide); phase 1 study

poly-ICLC
patients showing induction of CD4+ and CD8+ T cell, as well as antibody responses to the peptide: > 90%
